From patent publication US20150126573A1, “METHODS AND PHARMACEUTICAL COMPOSITIONS FOR PREVENTION OR TREATMENT OF CHRONIC OBSTRUCTIVE PULMONARY DISEASE” (INSERM (INSTITUT NATIONAL DE LA SANTE ET DE LA RECHERCHE …, priority 2012, published 2015)
Blank lines part the entries; values can stand above or below the compound they belong to.

Columns and labels:
[1] = tested on: Primary lung fibroblasts; test: Single 24 h exposure of non-senescent lung fibroblasts to PGE2 (accelerated senescence and related inflammation); assay type: cell-based, human; conditions: for PGE2-induced SA-β gal and p21 expression: control fibroblasts (NS-C and S-C), antagonists 10 μM; for increase in IL-6, CX3CL1, FGF2, VEGF, MMP2 and TIMP2 induced by PGE2: fibroblasts, EP2 and EP4 antagonists
Text: Primary lung fibroblasts were isolated by the explant technique (Normand J and Karasek M A. In Vitro Cell Dev Biol Anim 1995; 31:447-455) from lung specimens obtained for lung tumor resection from 25 patients with COPD and 35 subjects without clinical, morphological or functional signs of COPD (controls) (Table 1). Controls were divided into non-smoker and smoker groups (NS-C, n=10 and S-C, n=25 respectively). Smoking status (current smokers or ex-smokers, defined by smoking cessation after more than 1 year (Lapperre T S et al., Respir Res 2007; 8:85; Savale L et al. Am J Respir Crit Care Med 2009), was considered in the analysis of the different results (Table 2). Classification of COPD severity was based on the 2003 Global initiative for chronic obstructive lung disease (GOLD) criteria (Rabe K F et al., Am J Respir Crit Care Med 2007; 176:532-555). Informed consent was obtained from all patients and the study was approved by the “Comite de Protection des Personnes Ile de France IX”.
(§1) Fibroblasts were exposed to either PGE2 (0.5 to 50 ng ml^−1) or conditioned medium (CM) collected from fibroblasts incubated for 24 h. In different experiments cells were treated with inhibitors of COXs, agonists or antagonists of prostaglandin receptors EP2 and EP4, the antioxidant N-acetylcysteine (NAC), or the inhibitor of p53 transcriptional effects pifithriñ-α.
(§2) Senescence was characterized by measuring cumulative population doubling levels (PDLs) (Holz O et al., Eur Respir J 2004; 24:575-579), telomere length (Savale L et al., Am J Respir Crit Care Med 2009), senescence associated β-galactosidase activity (SA β-Gal) (Dimri G P. Cancer Cell 2005; 7:505-512), and the expression of phospho (serine 15)-p53 p16, p21, and caspase 3 by western blot, immunofluorecence and RT-qPCR analysis. The level of 29 soluble factors in conditioned medium was quantified using the Luminex technology (Millipore, Molscheim, France).

[2] = tested on: fibroblasts; test: Cellular reactive oxygen species production (DCFH-DA assay) and oxidant signalling in PGE2-exposed fibroblasts; assay type: cell-based, human; conditions: for increase in ROS, and SA β-gal and p21 expression induced by PGE2: 24 h pre-treatment of fibroblasts
Experimental: as §1
(§3) PGE2 was quantified by using the Prostaglandin E2 monoclonal EIA kit (Bertin Pharma, Montigny le Bretonneux, France). PGE2 receptors and enzymes involved in PGE2 synthesis were quantified by RT-qPCR. Cellular reactive oxygen species production was quantified by the DCFH-DA assay (Carter W et al., J Leukoc Biol 1994; 55:253-258).

[3] = tested on: lung mRNA expression of senescence markers and cytokines; test: Intratracheal instillation of PGE2 in mice, lung mRNA expression of senescence markers and cytokines; assay type: in vivo
Experimental: Male 8-week-old mice of C57BL/6 background and p53−/− animals (kindly provided by Tyler Jacks, MIT, Cambridge) were intratracheally instilled with either PGE2 (1 ng·ml^−1) or vehicle (DMSO 1/10000). Instilled volume was 50 μl. Twenty-four and 48 h after instillation mice were sacrificed and analysis of lung mRNA expression of senescence markers and cytokines were performed. Studies were conducted in compliance with INSERM guidelines regarding the fair treatment of animals.

[4] = tested on: PGE2; test: PGE2 quantification in fibroblast culture/conditioned medium (Prostaglandin E2 monoclonal EIA kit); assay type: cell-based, human; conditions: for reduction of the levels of PGE2 in CM: treatment of fibroblasts with COX inhibitors
Experimental: as §1, §3

[5] = tested on: S-C and COPD fibroblasts; test: Replicative senescence of S-C and COPD fibroblasts during successive passages (repeated PGE2 exposure or COX inhibitors); assay type: cell-based, human
Experimental: as §1, §2
Finally, the inventors investigated if endogenous PGE2 was involved in replicative senescence.

[6] = tested on: human dermal fibroblasts; conditions: Yang H H et al., Biogerontology 2011; cited from earlier work
[7] = tested on: Non-senescent fibroblasts from S-C and COPD patients (target fibroblasts); test: Paracrine senescence: target fibroblasts incubated 24 h with conditioned medium (CM) from senescent fibroblasts; assay type: cell-based, human
Experimental: as §1, §2
Non-senescent fibroblasts from S-C and COPD patients (further called target fibroblasts) were incubated 24 h with conditioned medium (CM) from cells of the respective groups obtained at non-senescent and senescent passages. […] Both S-C and COPD CM obtained at senescent passage increased the percentage SA-β gal, phospho (serine 15)-p53, p21, and p16 protein expression, as well as IL-6, IL-8, MCP-1 and FGF-2 mRNA expression in target cells.

[8] = COPD fibroblasts, both antagonists (EP2 + EP4) used simultaneously, versus one antagonist
[9] = COPD fibroblasts, one antagonist alone (10 μM), PGE2 10 ng·ml−1
[10] = wild type mice, single intra-tracheal instillation
[11] = repeated exposures to PGE2 at 1 ng·ml−1, passage 3 to 9
[12] = repeated exposures to PGE2 at 1 ng·ml−1, passage 3 to 9, S-C and COPD fibroblasts, greater in COPD
[13] = pre-treatment of target fibroblasts

SMILES: CC(C)Oc1ccc2c(=O)c3cc(C(=O)O)ccc3oc2c1 [AH6809]
PGE2-induced SA β-gal and p21 expression [1, 8]: small but significant higher effect | PGE2-induced SA β-gal and p21 expression [1, 9]: significantly reduced | PGE2-induced SA-β gal and p21 expression ([1]; PGE2 10 ng·ml−1): only the simultaneous application of both antagonists decreased | increase in IL-6, CX3CL1, FGF2, VEGF, MMP2 and TIMP2 induced by PGE2 [1]: both antagonists were needed to suppress

SMILES: O=C1CC[C@H](/C=C/[C@@H](O)Cc2ccccc2)N1CCCCCCc1nn[nH]n1 [CAY10598]
SA β-gal and p21 expression (agonists, no PGE2) ([1]; COPD and control fibroblasts, both agonists (EP2 + EP4) used simultaneously, versus one agonist): small but significant higher effect | SA β-gal and p21 expression (agonist alone, no PGE2) ([1]; COPD and control fibroblasts, one agonist): mimicked PGE2 effects

SMILES: CCOc1c2c(c(OCC)c3ccccc13)C(=O)N(c1ccc(CC(=O)NS(=O)(=O)c3ccccc3)cc1)C2 [GW627368X]
PGE2-induced SA β-gal and p21 expression [1, 8]: small but significant higher effect | PGE2-induced SA β-gal and p21 expression [1, 9]: significantly reduced | PGE2-induced SA-β gal and p21 expression ([1]; PGE2 10 ng·ml−1): only the simultaneous application of both antagonists decreased | increase in IL-6, CX3CL1, FGF2, VEGF, MMP2 and TIMP2 induced by PGE2 [1]: both antagonists were needed to suppress

SMILES: CC(=O)N[C@@H](CS)C(=O)O [N-acetyl-cysteine]
increase in ROS, and SA β-gal and p21 expression induced by PGE2 [2]: significantly reduced

cleaved caspase-3 (and phosphatidyl serine residues) ([1]; fibroblasts of the three groups of patients after PGE2): absence
SMILES: CCCCC[C@H](O)/C=C/[C@H]1[C@H](O)CC(=O)[C@@H]1C/C=C\CCCC(=O)O [PGE2, prostaglandin E2]
percentage of cells expressing SA β-gal, p21 and p16 protein ([1]; non-senescent NS-C, S-C and COPD fibroblasts, 24 h incubation with PGE2 (0.5 to 50 ng ml−1), higher in COPD): dose-response increase | levels of IL-6, CX3CL1, VEGF, FGF2, MMP-2 and TIMP-2 in cell culture supernatant ([1]; non-senescent fibroblasts, 24 h incubation with PGE2, higher in COPD): increase | COX2 mRNA levels ([3]; mice, at 48 h): increased | induction of p21 and inflammatory mediators ([3]; p53−/− mice): not observed | p16 expression in lung [3, 10]: no change | pulmonary expression of inflammatory mediators (IL-6, CX3CL1, FGF2, VEGF, MMP2) [3, 10]: induced | pulmonary expression of p53 and p21 ([3]; wild type mice, single intra-tracheal instillation, at 24 h and 48 h respectively): induced | activation of the DNA damage-activated transcription factor ATM ([2]; PGE2-exposed COPD cells, single exposure): No activation | concentration of intracellular ROS and expression of the oxidant-sensitive protein HO-1 ([2]; fibroblasts incubated with PGE2): increased in a dose-dependent manner only in fibroblasts from COPD patients | synthesis of endogenous PGE2 ([4]; fibroblasts exposed to exogenous PGE2): induced | expression of phosphorylated-ATM ([5]; COPD fibroblasts, repeated exposure to PGE2): enhanced | expression of MCP3 [5, 11]: not modified | reduction in telomeres length [5, 11]: did not modify | induction of SA-β gal, p21, p16, COX2 and HO-1 expression, and levels of IL-6, IL-8, GRO, VEGF and CX3CL [5, 12]: enhanced | senescence-associated cumulative PDL [5, 12]: further reduced | concentration from which the effect of PGE2 (aggravated replicative senescence) was observed [6]: ≥ 5 µM

SMILES: Cc1ccc(-c2cc(C(F)(F)F)nn2-c2ccc(S(N)(=O)=O)cc2)cc1 [celecoxib]
reduction of the levels of PGE2 in CM [4]: 60%

SMILES: COc1ccc2c(c1)c(CC(=O)O)c(C)n2C(=O)c1ccc(Cl)cc1 [indomethacin]
increase in ROS, and SA β-gal and p21 expression induced by PGE2 [2]: significantly reduced | reduction of the levels of PGE2 in CM [4]: 60% | percentage of SA β-gal positive cells and p21 protein expression ([7]; target cells incubated with CM from fibroblasts treated with COX inhibitor): parallel significant reduction

SMILES: Cc1ccc(C(=O)Cn2c3c(sc2=N)CCCC3)cc1 [pifithrin-α]
PGE2-induced SA β-gal and p21 expression ([1]; COPD and control fibroblasts): completely prevented | increase in IL6, CX3CL1, MMP-2 and TIMP-2 levels induced by PGE2 ([1]; control and COPD fibroblasts): completely prevented | increase in p16 induced by PGE2 ([1]; control and COPD fibroblasts): without modification | increase in FGF-2 mRNA expression induced by CM [7, 13]: not modified | increase in IL-6, IL-8 and MCP-1 mRNA expression induced by CM [7, 13]: suppressed | increase in SA β-gal positive cells and induction of p21 protein by S-C and COPD senescent CM [7, 13]: suppressed
